Entries after “also recorded” stand apart in the source; their conditions may differ. Like-named read-outs stand apart in the source and are kept apart here.

The nature of data set [1]: Stability in monkey plasma. The class given is in vitro ADME.
Data set [2] in a line: Pharmacokinetics of DON in swine plasma and CSF. The following applies: 60 min post-administration.
Data set [3] in a line: Stability in human plasma. The class given is in vitro ADME.
The test system of data set [4] is LPS-treated mice. The experiment in a line: LPS-induced deficit in contextual fear memory reconsolidation. The following applies: 1.9 mg/kg, i.p. co-administered with LPS 0.3 mg/kg, i.p. on Day 2. The class given is in vivo, mouse. The method, then: Fear conditioning and testing were performed in sound-attenuating chambers equipped with a metal grid floor to deliver calibrated inescapable footshocks. Fear conditioning (Day 1) consisted of a 2 minute habituation period followed by three 20 second 80 dB 2 kHz tones co-terminating in 0.4 mA footshocks separated by 1 minute interstimulus intervals. One day later (Day 2), each mouse was randomized into one of four treatment groups (PBS/Vehicle, PBS/9, LPS/Vehicle, LPS/9) and co-administered either LPS (0.3 mg/kg, i.p.) or filtered PBS with either 9 (1.9 mg/kg, i.p.) or Vehicle. Four hours later, each mouse was exposed to a reactivation session in which they were placed back in the fear conditioning context for 15 minutes. One day later (Day 3), each mouse underwent a test for fear memory reconsolidation by being placed again in the fear conditioning context for 10 minutes. For each session, time spent freezing was determined using automated motion detection software (CleverSys) and converted to percentages.
Freezing percentages during the reconsolidation test were grouped by treatment into 2 minute bins. Between group differences were determined by repeated measure two-way ANOVA and post hoc Dunnett's test with significance defined as p<0.05.

The subject of data set [5] is EAE mice. The following applies: cited from earlier work.
For data set [6], the system named is NRGN. The experiment in a line: Gene expression by QPCR in basal ganglia brain tissues of EcoHIV-infected mice. The class given is in vivo, mouse. The following applies: DON treatment reversal experiment; tissues collected 15 min after last DON treatment.
The subject of data set [7] is STX1A. The data set is described as above. The class given is in vivo, mouse. The following applies: DON treatment reversal experiment; tissues collected 15 min after last DON treatment. On the procedure:
Relative extent of gene expression tested by QPCR in basal ganglia brain tissues obtained from mice tested in DON treatment reversal experiment shown in FIG. 2A, FIG. 2B, and FIG. 2C. The tissues were collected 15 min after the last DON treatment;

Data set [8] deals with glutamate in CSF. The experiment in a line: CSF glutamate levels in EcoHIV mice (LC/MS). It counts as in vivo, mouse. On the procedure: CSF samples were derivatized with dabsyl chloride for analysis. To prepare a dabsyl chloride stock, acetone was added to dabsyl chloride to 10 mM concentration, vortexed, water bath sonicated for 10 minutes followed by heating to 60° C. for 10 minutes, vortexing again, centrifugation for 5 minutes at 16,000×g and taking the supernatant. Ten microliter standards of glutamate were prepared in artificial CFS by serial dilution. To each standard and sample, one volume of 0.2 M sodium bicarbonate buffer (pH 9.0 containing 100 μM glutamate-d5 as internal standard) and 2 volumes dabsyl chloride stock was added. Samples were incubated at 60° C. 10 minutes to derivatize. […] Glutamate was quantifiable to 10 nM.
Male C57BL6 mice were sham or EcoHIV-inoculated (4e6 pg p24, i.p.) then randomized to receive vehicle or compound 25 (1.82 mg/kg, i.p. every other day) beginning 15 post-inoculation. On day 33 post-inoculation, all mice were deeply anesthetized with isoflurane 30 minutes post-last dose, and CSF was terminally sampled from the cistema magna prior to measurement of glutamate concentrations by LC/MS-MS. EcoHIV infection caused increases in CSFS glutamate that were normalized by compound 25 treatment. Excluding values >2SD from mean, n=4-5/group. Analysis by two-way ANOVA followed by post-hoc Fisher's LSD, *p<0.05, ***p<0.001. Data are presented as the mean+SEM.

Data set [9] relates to EcoHIV-infected mice. Briefly: Radial arm water maze, therapeutic DON treatment of EcoHIV-infected mice. The class given is in vivo, mouse. The following applies: DON 1 mg/kg every other day started 26 days after EcoHIV infection; tests from day 30. The method, then:
The experimental design was for DON prophylaxis except that mice were infected first and DON administration at 1 mg/kg every other day started on Day 26 after infection.

Data set [10] relates to EcoHIV-infected mice. Briefly: Radial arm water maze, DON prophylaxis in EcoHIV-infected mice.
The nature of data set [11]: DON levels in plasma, CSF and basal ganglia of mice (LC-MS/MS). The class given is in vivo. The following applies: C57Bl, mouse, 15 minutes after dosing, DON 1 mg/kg. On the procedure:
DON was spiked into untreated mouse plasma to generate standards at concentrations from 10 nM to 100 μM at half-log intervals. Butanol with 3N HCl (250 μL) was added to standards and samples (50 μL) and centrifuged at 16,000×g for 5 minutes to precipitate proteins. […] After derivatization the samples were dried at 45° C. under a nitrogen stream. Samples were resuspended in 50 μL 70/30 water/acetonitrile, vortexed and centrifuged at 16,000×g. […] Standards within the quantifiable range were used to generate a standard curve. Samples below the limit of quantification (BLQ) were assigned a value of 0.
Brain analysis: Brain sections were weighed. DON was spiked into untreated mouse brain tissue to generate standards as described above. Butanol with 3N HCl (5 μL/mg) was added to standards and samples and homogenized by pestle followed by centrifugation at 16,000×g. An aliquot (200 μL) of the supernatant was transferred to a new tube and processed as described in the plasma analysis section. Twenty microliters was injected for analysis as described hereinabove.

Data set [12] concerns CSDS mice. Briefly: Three-chambered social approach test after chronic social defeat stress (CSDS). It counts as in vivo, mouse. The method, then: (§1) Compound 25 was synthesized by our laboratory. For all pharmacokinetic and efficacy studies, compound 25 was administered per oral (p.o.) at a dose of 1.82 mg/kg (1 mg/kg DON equivalent) in 50 mM HEPES-buffered saline.
Male 7- to 8-week-old C57BL/6J (C57) mice (25-30 g; Jackson Laboratory, Bar Harbor, Me.) and 4- to 6-month-old CD-1 retired breeders (35-45 g; Charles River Laboratories, Wilmington, Mass.) were used for all experiments. Mice were housed on a reversed 12-h light/dark cycle, and maintained in a humidity- and temperature-controlled room with water and food available ad libitum. CD-1 mice were singly housed except during social defeats. C57 mice were group housed before starting CSDS and singly housed after CSDS. Behavioral experiments were conducted during the dark cycle. All studies were conducted with approved protocols from the Johns Hopkins University Institutional Animal Care and Use Committee and were in accordance with the NIH guidelines for the Care and Use of Laboratory Animals.
Mice were exposed to CSDS and subsequently administered compound 25 or vehicle every other day for 12 days (FIG. 14A). To examine the effect of compound 25 treatment on behavioral phenotypes induced by CSDS, we first tested the mice in the three-chambered social approach test, where the social approach of a mouse toward a stranger mouse trapped in a wire cage was measured.

Data set [13] has as its system CSDS mice. The experiment in a line: Sucrose preference test after CSDS. The class given is in vivo, mouse. On the procedure: as §1
The sucrose preference test was performed according to a previously described protocol (Cao et al, 2013; Roybal et al, 2007). The mice were singly caged before the test. On day 1, their normal water bottles were replaced with two 50 ml tubes (bottle ‘A’ and bottle ‘B’) fitted with bottle stoppers containing two-balled sipper tubes. The position of bottles A and B were switched daily to avoid a side bias, and the fluid consumed from each bottle was measured daily. During days 1 and 2, bottles A and B were filled with normal drinking water (W/W). During days 3 and 4, both bottles were filled with a solution of 1.5% sucrose dissolved in drinking water (S/S). On days 5-8, bottle A contained 1.5% sucrose, and bottle B contained drinking water […]. Sucrose preference on each day for each mouse was calculated as 100%×(Vol A/(Vol A+Vol B)) and averaged across the days for a given condition (W/W, S/S, or S/W). The average of total fluid consumption was also calculated as (Vol A+Vol B).
To examine the effect of compound 25 treatment on anhedonia-like behavior, control and CSDS mice were subjected to an 8-day sucrose preference test.

Setting [14] is: DON 1 mg/kg, i.p., […], 30 days post-infection.

On to `CC(C)OC(=O)[C@H](CCC(=O)C=[N+]=[N-])NC(=O)O[C@H](C)OC(=O)C(C)(C)C` (single isomer, unassigned) [Compound 14b], for which the “stability in monkey plasma” value in [1] is reported as “unexpected stability”. For the same compound, in [2], the “CSF-to-plasma ratio of DON relative to DON” value was “increased CSF-to-plasma ratios” and the “amount of DON delivered to the CSF relative to DON” value is on record as “substantially higher amounts of DON to the CSF”. Besides, in [3], the “stability in human plasma” value is given as “unexpected stability”.

As for `CC(C)OC(=O)[C@H](CCC(=O)C=[N+]=[N-])NC(=O)OC(OC(=O)C(C)(C)C)c1ccccc1` (stereo partly drawn) [Compound 47], in data set [2], the “CSF-to-plasma ratio of DON relative to DON” value is reported as “increased CSF-to-plasma ratios” and the “amount of DON delivered to the CSF relative to DON” value is reported as “substantially higher amounts of DON to the CSF”.

In the case of `CC(C)C[C@H](N)C(=O)N[C@@H](CCC(=O)C=[N+]=[N-])C(=O)OC(C)C` [Compound 9], in data set [4], the “LPS-induced reduced freezing during the reconsolidation test (Day 3)” value was “attenuated; also recorded: indistinguishable from PBS/Veh mice”.

For `[N-]=[N+]=CC(=O)CC[C@H](N)C(=O)O` [DON, 6-diazo-5-oxo-L-norleucine], in [5] (DON i.p. q.a.d. 1.6 mg/kg from the time of immunization (Shijie, et al., 2009)), the “EAE (disease score), DON from time of immunization” value was “attenuates EAE”. For the same compound, in data set [5] (DON i.p. q.a.d., doses lower than 1.6 mg/kg (Shijie, et al., 2009)), the “EAE (disease score), lower doses of DON” value is “ineffective”. In addition, in data set [6], the “NRGN gene expression in basal ganglia” value is “reversed HIV-mediated down-modulation”. In addition, the “STX1A gene expression in basal ganglia” value in data set [7] is reported as “reversed HIV-mediated down-modulation”. In addition, the “glutamate in CSF of EcoHIV mice” value in [8] (DON-treated mice, no significant differences by one-way ANOVA) is “tended to decrease the glutamate in the EcoHIV mice”. Also, the “cognitive disease (radial arm water maze)” value in data set [9] is “completely abrogates (reverses) cognitive disease”. In [10] (DON 1 mg/kg on alternate days from 24 h before EcoHIV infection, tested 30 days after infection), the “HIV-induced cognitive impairment (radial arm water test, learning and memory)” value is on record as “prevents development of HIV-induced cognitive impairment”. The “cognitive performance as measured by errors (RAWM, hidden platform)” value in [10] (setting [14]) was “fully normalized cognitive performance”. In [10] (setting [14]), the “cognitive performance as measured by latency to escape (RAWM, hidden platform)” value is “fully normalized cognitive performance”. Besides, the concentration at 15 min in data set [11] (CSF, read-out: DON concentration in CSF) lay within 300 to 500 nM; in [11] (brain (basal ganglia), read-out: DON concentration in brain tissue (basal ganglia)), 300 to 500 nM; in data set [11] (plasma, read-out: DON concentration in plasma), 2500 to 3000 nM.

As for `CCOC(=O)[C@H](CCC(=O)C=[N+]=[N-])NC(=O)[C@@H](N)CC(C)C` [Compound 25], the “social behaviors (time in chamber, time sniffing) in mice subjected to CSDS” value in data set [12] (1.82 mg/kg p.o. (1 mg/kg DON equivalent) every other day for 12 days after CSDS) was “normalized observed social behaviors”. Also, the “sociability in control mice” value in data set [12] (1.82 mg/kg p.o. every other day for 12 days, control mice) is recorded as “no effect on sociability in control mice”. In [8] (1.82 mg/kg, i.p. every other day, CSF sampled day 33 post-inoculation, 30 minutes post-last dose), the “EcoHIV-induced increases in CSF glutamate concentration” value is on record as “significantly reversed EcoHIV-induced increases in CSF glutamate concentration”. Further, the “sucrose consumption (sucrose preference) in the CSDS group, days 5-8” value in data set [13] (1.82 mg/kg p.o. (1 mg/kg DON equivalent), CSDS mice) is reported as “markedly restored sucrose consumption”. The “sucrose consumption (sucrose preference) in controls, days 5-8” value in [13] (1.82 mg/kg p.o., control mice) is on record as “no change was observed in controls”.
